Where two headings read alike, the source gives them in different places.
Experiments:
DLD-1 BRCA2−/− cells = assay: Homologous recombination synthetic lethal inhibition of proliferation, DLD-1 BRCA2-/- (Cell Titre Glo 3D); assay type: cell-based; conditions: for IC50: Homo sapiens
Procedure, shortened: (§1)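 Read-out: CellTiter-Glo 3D luminescence, day 7 for wt DLD-1, day 12 for BRCA2−/−, about 8-9 population doublings each. Seeding 1,500 or 3,000 cells/mL respectively. Dose range 10 μM–0.51 nM, 3-fold, 10 points, with re-dosing on day 6. IC50 from curve fit.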

DLD-1 cells = assay: Inhibition of proliferation, DLD-1 BRCA2 wt control (Cell Titre Glo 3D); assay type: cell-based; conditions: for IC50: Homo sapiens
Procedure, shortened: as §1

[1] = DLD-1, first proliferation column (c5), taken as DLD-1 BRCA2-/-, read-out: POLQ PD Prolif Lumin (converted)
[2] = DLD-1, second proliferation column (c6), taken as DLD-1 BRCA2 wt, read-out: POLQ PD Prolif Lumin (converted)
[3] = DLD-1, 288 h, DLD-1 BRCA2−/−, 12 days, Cell Titre Glo 3D, read-out: POLQ PD Prolif Lumin BRCA2 −/− Mean pIC50 (converted)
[4] = DLD-1, 168 h, DLD-1 (BRCA2 wt control), 7 days, Cell Titre Glo 3D, read-out: POLQ PD Prolif Lumin DLD1 Mean pIC50 (converted)
[5] = DLD-1, 168 h, DLD-1 BRCA2 wt cells, 7 days, read-out: POLQ PD Prolif Lumin DLD1 mean pIC50 (converted)
[6] = DLD-1, 288 h, DLD-1 BRCA2−/− cells, 12 days, read-out: POLQ PD Prolif Lumin BRCA2 −/− mean pIC50 (converted)

| SMILES | IC50 (DLD-1 cells; [5]) [nM] | IC50 (DLD-1 BRCA2−/− cells; [6]) [nM] | further results |
| --- | --- | --- | --- |
| CC(COc1cccc(-c2nc3c(OC4(C)CC4)ncnc3n2Cc2cccc(Cl)c2)c1Cl)CC(=O)O (single isomer, unassigned) [Example T299, 4-(2-chloro-3-(9-(3-chlorobenzyl)-6-(1-methylcyclopropoxy)-9H-purin-8-yl)phenoxy)-3-methylbutanoic acid] |  |  | IC50 (DLD-1 BRCA2−/− cells; [1]): 79.4 nM; IC50 (DLD-1 cells; [2]): > 10000 nM |
| Cc1cnc(Cn2c(-c3ccc(OC4CCCN(C)CC4)cc3Cl)nc3c(OC4(C)CC4)ncnc32)s1 (single isomer, unassigned) [Example T389, 2-((8-(2-chloro-4-((1-methylazepan-4-yl)oxy)phenyl)-6-(1-methylcyclopropoxy)-9H-purin-9-yl)methyl)-5-methylthiazole] |  |  | IC50 (DLD-1 BRCA2−/− cells; [1]): 316 nM; IC50 (DLD-1 cells; [2]): > 10000 nM |
| COc1ccc(F)cc1Cn1c(-c2cccc(OCC(C)CC(=O)O)c2Cl)nc2c(OC3(C)CC3)ncnc21 (single isomer, unassigned) [Example U77, 4-(2-chloro-3-(9-(5-fluoro-2-methoxybenzyl)-6-(1-methylcyclopropoxy)-9H-purin-8-yl)phenoxy)-3-methylbutanoic acid] |  |  | IC50 (DLD-1 BRCA2−/− cells; DLD-1, DLD-1 BRCA2 −/−, mean, read-out: POLQ PD Prolif Lumin BRCA2 −/− mean pIC50 (converted)): 7.94 nM; IC50 (DLD-1 cells; DLD-1, DLD1 BRCA2 wt, mean, read-out: POLQ PD Prolif Lumin DLD1 mean pIC50 (converted)): > 10000 nM |
| C[C@H](CCOc1ccc(-c2nc3c(OC4(C)CC4)ncnc3n2Cc2cccc(Cl)c2)c(Cl)c1)C(=O)O (single isomer, unassigned; isomer 1) [Example 34, 4-(3-Chloro-4-(9-(3-chlorobenzyl)-6-(1-methylcyclopropoxy)-9H-purin-8-yl)phenoxy)-2-methylbutanoic acid (Isomer 1)] |  |  | IC50 (DLD-1 BRCA2−/− cells; [3]): 200 nM; IC50 (DLD-1 cells; [4]): > 10000 nM |
| COc1ccc(Cl)cc1Cn1c(-c2cccc(OC[C@@H](C)CC(=O)O)c2Cl)nc2c(OC3(C)CC3)ncnc21 (single isomer, unassigned; isomer 1) [Example 50, 4-(2-Chloro-3-(9-(5-chloro-2-methoxybenzyl)-6-(1-methylcyclopropoxy)-9H-purin-8-yl)phenoxy)-3-methylbutanoic acid (isomer 1)] |  |  | IC50 (DLD-1 BRCA2−/− cells; [3]): 6.31 nM; IC50 (DLD-1 cells; [4]): > 10000 nM |
| CC(c1cc(Cl)ccn1)n1c(-c2ccc(OCCN3CCNCC3)cc2Cl)nc2c(OC3(C)CC3)ncnc21 (single isomer, unassigned; isomer 1) [Example S6, 8-(2-chloro-4-(2-(piperazin-1-yl)ethoxy)phenyl)-9-(1-(4-chloropyridin-2-yl)ethyl)-6-(1-methylcyclopropoxy)-9H-purine (Isomer 1)] |  |  | POLQ PD Prolif Lumin BRCA2 −/− mean pIC50 (DLD-1 BRCA2−/− cells; DLD-1 BRCA2−/− cells, 12 days): 6.5; POLQ PD Prolif Lumin DLD1 mean pIC50 (DLD-1 cells; DLD-1 BRCA2 wt cells, 7 days): <5.0 |
| C[C@@H](CCOc1ccc(-c2nc3c(OC4(C)CC4)ncnc3n2Cc2cccc(Cl)c2)c(Cl)c1)C(=O)O (single isomer, unassigned; isomer 2) [Example 35, 4-(3-Chloro-4-(9-(3-chlorobenzyl)-6-(1-methylcyclopropoxy)-9H-purin-8-yl)phenoxy)-2-methylbutanoic acid (Isomer 2)] |  |  | IC50 (DLD-1 BRCA2−/− cells; [3]): 126 nM; IC50 (DLD-1 cells; [4]): > 10000 nM |
| COc1ccc(Cl)cc1Cn1c(-c2cccc(OC[C@H](C)CC(=O)O)c2Cl)nc2c(OC3(C)CC3)ncnc21 (single isomer, unassigned; isomer 2) [Example 51, 4-(2-Chloro-3-(9-(5-chloro-2-methoxybenzyl)-6-(1-methylcyclopropoxy)-9H-purin-8-yl)phenoxy)-3-methylbutanoic acid (isomer 2)] |  |  | IC50 (DLD-1 BRCA2−/− cells; [3]): 7.94 nM; IC50 (DLD-1 cells; [4]): > 10000 nM |
| Cc1cc(OCCN2CCN(C)CC2)ccc1-c1nc2c(OC(C)C)ncnc2n1Cc1ccccc1 [Example 1, 9-Benzyl-6-isopropoxy-8-(2-methyl-4-(2-(4-methylpiperazin-1-yl)ethoxy)phenyl)-9H-purine] | 6310 | 631 |  |
| CC(C)Oc1ccc2c(c1)nc(-c1ccc(OCCCN)cc1Cl)n2Cc1ccccc1 [Example 3, 3-(4-(1-Benzyl-5-isopropoxy-1H-benzo[d]imidazol-2-yl)-3-chlorophenoxy)propan-1-amine] | 1580 | 1000 |  |
| CC(C)Oc1ccc2c(n1)nc(-c1ccc(OCCN3CCNCC3)cc1Cl)n2Cc1ccccc1 [Example 8, 1-Benzyl-2-(2-chloro-4-(2-(piperazin-1-yl)ethoxy)phenyl)-5-isopropoxy-1H-imidazo[4,5-b]pyridine] | 3160 | 1000 |  |
| CC1(Oc2ncnc3c2nc(-c2ccc(OCCN4CCNCC4)cc2Cl)n3Cc2cc(Cl)ccn2)CC1 [Example 10, 8-(2-Chloro-4-(2-(piperazin-1-yl)ethoxy)phenyl)-9-((4-chloropyridin-2-yl)methyl)-6-(1-methylcyclopropoxy)-9H-purine] | > 10000 | 200 |  |
| CC(C)(Oc1ncnc2c1nc(-c1ccc(OCCN3CCNCC3)cc1Cl)n2Cc1ccccc1)C(F)(F)F [Example 11, 9-Benzyl-8-(2-chloro-4-(2-(piperazin-1-yl)ethoxy)phenyl)-6-((1,1,1-trifluoro-2-methylpropan-2-yl)oxy)-9H-purine] | 794 | 251 |  |
| CC1(Oc2ncnc3c2nc(-c2ccc(OCCN4CCNCC4)cc2Cl)n3Cc2ccccc2)CCC1 [Example 12, 9-Benzyl-8-(2-chloro-4-(2-(piperazin-1-yl)ethoxy)phenyl)-6-(1-methylcyclobutoxy)-9H-purine] | 2000 | 126 |  |
| CC1(Oc2cccc3c2nc(-c2ccc(OCCN4CCNCC4)cc2Cl)n3Cc2cc(Cl)ccn2)CC1 [Example 15, 2-(2-chloro-4-(2-(piperazin-1-yl)ethoxy)phenyl)-1-((4-chloropyridin-2-yl)methyl)-4-(1-methylcyclopropoxy)-1H-benzo[d]imidazole] | 6310 | 251 |  |

The next lines start with results.

| IC50 (DLD-1 cells; [5]) [nM] | SMILES | IC50 (DLD-1 BRCA2−/− cells; [6]) [nM] | further results |
| --- | --- | --- | --- |
| > 10000 | CC(c1cc(Cl)ccn1)n1c(-c2ccc(OCCN3CCNCC3)cc2Cl)nc2c(OC3(C)CC3)ncnc21 (single isomer, unassigned; isomer 2) [Example S5, 8-(2-chloro-4-(2-(piperazin-1-yl)ethoxy)phenyl)-9-(1-(4-chloropyridin-2-yl)ethyl)-6-(1-methylcyclopropoxy)-9H-purine (Isomer 2)] |  | POLQ PD Prolif Lumin BRCA2 −/− mean pIC50 (DLD-1 BRCA2−/− cells; DLD-1 BRCA2−/− cells, 12 days): 6.1 |
| 3980 | CN1CCN(CCOc2ccc(-c3nc4c(OC5(C)CC5)ncnc4n3Cc3ccccc3)c(Cl)c2)CC1 [Example 4, 9-Benzyl-8-(2-chloro-4-(2-(4-methylpiperazin-1-yl)ethoxy)phenyl)-6-(1-methylcyclopropoxy)-9H-purine] | 63.1 |  |
| 3160 | CN1CCC(COc2ccc(-c3nc4c(OC5(C)CC5)ncnc4n3Cc3ccccc3)c(Cl)c2)CC1 [Example 5, 9-Benzyl-8-(2-chloro-4-((1-methylpiperidin-4-yl)methoxy)phenyl)-6-(1-methylcyclopropoxy)-9H-purine] | 50.1 |  |
| 3980 | CC1(Oc2ncnc3c2nc(-c2ccc(OCCN4CCNCC4)cc2Cl)n3Cc2ccccc2)CC1 [Example 6, 9-Benzyl-8-(2-chloro-4-(2-(piperazin-1-yl)ethoxy)phenyl)-6-(1-methylcyclopropoxy)-9H-purine] | 158 |  |
| > 10000 | Cc1nc(Cn2c(-c3ccc(OCCN4CCN(C)CC4)cc3Cl)nc3c(OC4(C)CC4)ncnc32)cs1 [Example 7, 4-((8-(2-Chloro-4-(2-(4-methylpiperazin-1-yl)ethoxy)phenyl)-6-(1-methylcyclopropoxy)-9H-purin-9-yl)methyl)-2-methylthiazole] | 794 |  |
| 2510 | CC(C)Oc1nccc2c1nc(-c1ccc(OCCN3CCNCC3)cc1Cl)n2Cc1ccccc1 [Example 9, 1-benzyl-2-(2-chloro-4-(2-(piperazin-1-yl)ethoxy)phenyl)-4-isopropoxy-1H-imidazo[4,5-c]pyridine] | 631 |  |
| > 10000 | N#CC1(Oc2ncnc3c2nc(-c2ccc(OCCN4CCNCC4)cc2Cl)n3Cc2ccccc2)CC1 [Example 13, 1-((9-Benzyl-8-(2-chloro-4-(2-(piperazin-1-yl)ethoxy)phenyl)-9H-purin-6-yl)oxy)cyclopropane-1-carbonitrile] | 251 |  |
| > 10000 | CC1(Oc2ccnc3c2nc(-c2ccc(OCCN4CCNCC4)cc2Cl)n3Cc2cc(Cl)ccn2)CC1 [Example 14, 2-(2-Chloro-4-(2-(piperazin-1-yl)ethoxy)phenyl)-3-((4-chloropyridin-2-yl)methyl)-7-(1-methylcyclopropoxy)-3H-imidazo[4,5-b]pyridine] | 251 |  |
| > 10000 | CC1(Oc2nccc3c2nc(-c2ccc(OCCN4CCNCC4)cc2Cl)n3Cc2cc(Cl)ccn2)CC1 [Example 16, 2-(2-chloro-4-(2-(piperazin-1-yl)ethoxy)phenyl)-1-((4-chloropyridin-2-yl)methyl)-4-(1-methylcyclopropoxy)-1H-imidazo[4,5-c]pyridine] | 398 |  |
| > 10000 | CN(C)CCCOc1ccc(-c2nc3c(OC4(C)CC4)ncnc3n2Cc2cc(Cl)ccn2)c(Cl)c1 [Example 17, 3-(3-Chloro-4-(9-((4-chloropyridin-2-yl)methyl)-6-(1-methylcyclopropoxy)-9H-purin-8-yl)phenoxy)-N,N-dimethylpropan-1-amine] | 79.4 |  |
